Here are results for 27 molecules from patent US20120252796A1, “COMPOUNDS FOR THE TREATMENT OF DYSLIPIDEMIA AND RELATED DISEASES” (priority 2009, published 2012).

The experiment deals with PCSK9 (Homo sapiens, UniProt Q8NBP7). The experiment is described as follows: PCSK9-LDLR in vitro Binding Assay (ELISA). The following applies: for inhibition at 5 µM: Concentration 5 μM. On the procedure: The PCSK9-LDLR in vitro Binding Assay is a quantitative solid phase binding assay between PCSK9 and recombinant LDLR. Plates were pre-coated with a recombinant LDLR-AB domain, which binds PCSK9. Test compound at different concentration was added to the PCSK9 and added to LDLR immobilized on the wells. The amount of bound PCSK9 is measured by binding it with biotinylated anti-His-tag monoclonal antibody, followed by binding with horseradish peroxidase conjugated streptavidin substrate. The color was quantified by ELISA reader at […] which reflects the relative amount of PCSK9 that binds to LDLR in presence and absence of the inhibitor. EC50 values were calculated by nonlinear regression analysis using graph pad prism software. Each concentration point represents values in duplicates.
PCSK9, sequence (Q8NBP7 153-692): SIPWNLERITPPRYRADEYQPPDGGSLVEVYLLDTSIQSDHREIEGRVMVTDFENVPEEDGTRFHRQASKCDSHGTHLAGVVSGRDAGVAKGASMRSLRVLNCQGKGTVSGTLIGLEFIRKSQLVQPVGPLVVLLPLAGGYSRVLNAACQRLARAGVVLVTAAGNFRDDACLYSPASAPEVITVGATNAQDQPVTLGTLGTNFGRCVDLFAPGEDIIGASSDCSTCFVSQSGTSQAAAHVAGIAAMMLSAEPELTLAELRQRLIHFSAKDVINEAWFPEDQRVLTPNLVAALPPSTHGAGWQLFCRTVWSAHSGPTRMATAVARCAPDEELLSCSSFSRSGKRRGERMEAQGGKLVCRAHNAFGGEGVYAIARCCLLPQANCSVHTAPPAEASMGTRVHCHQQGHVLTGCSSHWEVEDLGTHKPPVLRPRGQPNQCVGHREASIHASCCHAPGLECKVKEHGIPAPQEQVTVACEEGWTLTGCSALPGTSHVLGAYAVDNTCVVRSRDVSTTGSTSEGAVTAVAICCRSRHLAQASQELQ
PCSK9, sequence (Q8NBP7 31-152 partner limits assumed): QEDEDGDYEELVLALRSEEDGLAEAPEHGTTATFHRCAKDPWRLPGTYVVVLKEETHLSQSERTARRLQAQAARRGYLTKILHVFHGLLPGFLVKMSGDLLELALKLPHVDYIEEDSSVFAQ
Background: In an ELISA, binding on a coated surface is turned into a signal by an enzyme label.

Each structure is given as a SMILES string.

As usually defined, the inhibition is how much of the control response was suppressed. `Cc1ccc(-c2nc(CC3COC(C)(C(=O)NCC4CCOCC4)OC3)c(C)o2)cc1` (stereo not drawn) [Example 62, 2-methyl-5-((5-methyl-2-(p-tolyl)oxazol-4-yl)methyl)-N—((tetrahydro-2H-pyran-4-yl)methyl)-1,3-dioxane-2-carboxamide]: the inhibition at 0.1 µM (Concentration 0.1 μM) is 17%. Under “Concentration 1 μM”, this molecule registered an inhibition at 1 µM of 21%. This molecule had an inhibition at 10 µM (Concentration 10 μM) of 14%. In addition, testing at 100 µM (Concentration 100 μM) gave an inhibition of 41%.

The molecule `Cc1oc(C(C)(C)C)nc1CC1COC(C)(C(=O)NO)OC1` (stereo not drawn) [Example 72, 5-((2-(tert-butyl)-5-methyloxazol-4-yl)methyl)-N-hydroxy-2-methyl-1,3-dioxane-2-carboxamide] returned an inhibition at 5 µM of 11%. In addition, the inhibition at 100 µM (Concentration 100 μM) came to 25%. This molecule also returned an inhibition at 110 µM (Concentration 110 μM) of 20%.

For the molecule `Cc1oc(-c2ccccc2)nc1CCC1COC(C)(C(=O)N2CCSCC2)OC1` (stereo not drawn) [Example 45, (2-methyl-5-c-(2-(5-methyl-2-phenyloxazol-4-yl)ethyl)-1,3-dioxan-2-yl)(thiomorpholino)methanone], the “% Inhibition PCSK9” value stood at 11% (Concentration 10 μM) and 18% (Concentration 100 μM).

For the molecule `Cc1oc(-c2ccccc2)nc1CCC1COC(C)(C(=O)NCC(=O)N2CCOCC2)OC1` (stereo not drawn) [Example 49, 2-methyl-5-t-(2-(5-methyl-2-phenyloxazol-4-yl)ethyl)-N-(2-morpholino-2-oxoethyl)-1,3-dioxane-2-carboxamide], the “% Inhibition PCSK9” value (Concentration 100 μM) is listed as 17%.

On to `Cc1ccc(-c2nc(CC3COC(C)(C(=O)N4CCOCC4)OC3)c(C)o2)cc1` (stereo not drawn) [Example 67, (2-methyl-5-t-((5-methyl-2-(p-tolyl)oxazol-4-yl)methyl)-1,3-dioxan-2-yl)(morpholino)methanone], for which the “% Inhibition PCSK9” value is given as 3% (Concentration 1 μM, 1 µM); 21% (Concentration 10 μM, 10 µM); 25% (Concentration 100 μM, 100 µM).

Regarding `Cc1ccc(-c2nc(CC3COC(C)(C(=O)N4CCOCC4)OC3)c(C)o2)cc1` (stereo not drawn) [Example 65, (2-methyl-5-((5-methyl-2-(p-tolyl)oxazol-4-yl)methyl)-1,3-dioxan-2-yl)(morpholino)methanone], 1 µM produced 11% inhibition (Concentration 1 μM). Also, the inhibition at 10 µM (Concentration 10 μM) stood at 26%. For the same molecule, the inhibition at 100 µM (Concentration 100 μM) worked out at 35%.

`Cc1ccc(-n2nc(C(C)(C)C)cc2CC2COC(C)(C(=O)N3CCN(C)CC3)OC2)cc1` (stereo not drawn) [Example 105, (5-((3-(tert-butyl)-1-(p-tolyl)-1H-pyrazol-5-yl)methyl)-2-methyl-1,3-dioxan-2-yl)(4-methylpiperazin-1-yl)methanone] displayed an inhibition at 10 µM (Concentration 10 μM) of 10%. Moreover, the inhibition at 100 µM (Concentration 100 μM) is 40%.

Turning to `Cc1ccc(-c2nc(CC3COC(C)(C(=O)N4CCOCC4)OC3)c(C)o2)s1` (stereo not drawn) [Example 77], the “% Inhibition PCSK9” value (Concentration 10 μM, 10 µM) worked out at 14% and the “% Inhibition PCSK9” value (Concentration 100 μM, 100 µM) was 16%.

With `Cc1oc(-c2ccccc2)nc1CC1COC(C)(C(=O)N2CCSCC2)OC1` (stereo not drawn) [Example 16, (2-methyl-5-c-((5-methyl-2-phenyloxazol-4-yl)methyl)-1,3-dioxan-2-yl)(thiomorpholino)methanone], the “% Inhibition PCSK9” value (Concentration 100 μM) amounted to 12%.

As to `Cc1ccc(-c2nc(CC3COC(C)(C(=O)NOCc4ccccc4)OC3)c(C)o2)cc1` (stereo not drawn) [Example 56, N-benzyloxy-2-methyl-5-((5-methyl-2-(p-tolyl)oxazol-4-yl)methyl)-1,3-dioxane-2-carboxamide], the inhibition at 5 µM worked out at 6%. Besides, 10 µM produced 17% inhibition (Concentration 10 μM).

Take `Cc1oc(-c2ccncc2)nc1CC1COC(C)(C(=O)N2CCOCC2)OC1` (stereo not drawn) [Example 82, (2-methyl-5-c-((5-methyl-2-(pyridin-4-yl)oxazol-4-yl)methyl)-1,3-dioxan-2-yl)(morpholino)methanone]: the “% Inhibition PCSK9” value (Concentration 1 μM, 1 µM) is reported as 13%; the “% Inhibition PCSK9” value (Concentration 10 μM, 10 µM) was found to be 20%; the “% Inhibition PCSK9” value (Concentration 100 μM) is recorded as 42%.

For `Cc1ccc(-c2nc(CC3COC(C)(C(=O)NO)OC3)c(C)o2)cc1` (stereo not drawn) [Example 60, N-hydroxy-2-methyl-5-c-((5-methyl-2-(p-tolyl)oxazol-4-yl)methyl)-1,3-dioxane-2-carboxamide], the “% Inhibition PCSK9” value runs as follows: (Concentration 1 μM) 28%; (Concentration 10 μM, 10 µM) 26%; (Concentration 100 μM, 100 µM) 70%.

Regarding `Cc1ccc(-n2nc(C(C)(C)C)cc2CC2COC(C)(C(=O)NO)OC2)cc1` (stereo not drawn) [Example 99, N-(hydroxy)-5-c-((3-(tert-butyl)-1-(p-tolyl)-1H-pyrazol-5-yl)methyl)-2-methyl-1,3-dioxane-2-carboxamide], the “% Inhibition PCSK9” value by setting is: (Concentration 10 μM) 5%; (Concentration 100 μM) 32%.

Consider `Cc1oc(-c2ccccc2)nc1CCC1COC(C)(C(=O)N2CCN(C)CC2)OC1` (stereo not drawn) [Example 43, (2-methyl-5-c-(2-(5-methyl-2-phenyloxazol-4-yl)ethyl)-1,3-dioxan-2-yl)(4-methylpiperazin-1-yl)methanone], for which the “% Inhibition PCSK9” value (Concentration 10 μM) turned out to be 8% and the “% Inhibition PCSK9” value (Concentration 100 μM) amounted to 10%.

As for `Cc1oc(-c2ccccc2)nc1CC1COC(C)(C(=O)NCCC(=O)N2CCS(=O)(=O)CC2)OC1` (stereo not drawn) [Example 29, N-(3-(1,1-dioxidothiomorpholino)-3-oxopropyl)-2-methyl-5-c-((5-methyl-2-phenyloxazol-4-yl)methyl)-1,3-dioxane-2-carboxamide], the “% Inhibition PCSK9” value turned out to be 8% (Concentration 10 μM) and 12% (Concentration 100 μM).

Take `Cc1oc(-c2ccccc2)nc1CC1COC(C)(C(=O)N2CCS(=O)(=O)CC2)OC1` (stereo not drawn) [Example 17, (1,1-dioxidothiomorpholino)(2-methyl-5-c-((5-methyl-2-phenyloxazol-4-yl)methyl)-1,3-dioxan-2-yl)methanone]: the “% Inhibition PCSK9” value (Concentration 100 μM) was found to be 15%.

For `Cc1oc(-c2ccccc2)nc1CC1COC(C)(C(=O)NCC(=O)N2CCOCC2)OC1` (stereo not drawn) [Example 18, 2-methyl-5-((5-methyl-2-phenyloxazol-4-yl)methyl)-N-(2-morpholino-2-oxoethyl)-1,3-dioxane-2-carboxamide], under “Concentration 1 μM”, at 1 µM the inhibition was 40%. Testing at 100 µM (Concentration 100 μM) gave an inhibition of 39%.

Regarding `Cc1oc(-c2ccccc2)nc1CCC1COC(C)(C(=O)NCC(=O)N2CCOCC2)OC1` (stereo not drawn) [Example 47, 2-methyl-5-(2-(5-methyl-2-phenyloxazol-4-yl)ethyl)-N-(2-morpholino-2-oxoethyl)-1,3-dioxane-2-carboxamide], for the setting “Concentration 1 μM”, 1 µM produced 38% inhibition. The molecule further returned an inhibition at 10 µM (Concentration 10 μM) of 38%. For the same molecule, the inhibition at 100 µM (Concentration 100 μM) is 42%.

On to `Cc1oc(-c2ccccc2)nc1CCC1COC(C)(C(=O)NCC(=O)N2CCSCC2)OC1` (stereo not drawn) [Example 52, 2-methyl-5-c-(2-(5-methyl-2-phenyloxazol-4-yl)ethyl)-N-(2-oxo-2-thiomorpholinoethyl)-1,3-dioxane-2-carboxamide], for which the “% Inhibition PCSK9” value reads like this: (Concentration 10 μM) 20%; (Concentration 100 μM) 32%.

For the molecule `Cc1oc(-c2ccccc2)nc1CC1COC(C)(C(=O)N2CCCCC2)OC1` (stereo not drawn) [Example 15, (2-methyl-5-c-((5-methyl-2-phenyloxazol-4-yl)methyl)-1,3-dioxan-2-yl)(piperidin-1-yl)methanone], the “% Inhibition PCSK9” value reads like this: (Concentration 10 μM) 11%; (Concentration 100 μM) 4%.

Take `CC(=O)C(Cc1ccccc1)NC(=O)CNC(=O)C1(C)OCC(CCc2nc(-c3ccccc3)oc2C)CO1` (stereo not drawn) [Example 55, 2-methyl-5-(2-(5-methyl-2-phenyloxazol-4-yl)ethyl)-N-(2-oxo-2-((3-oxo-1-phenylbutan-2-yl)amino)ethyl)-1,3-dioxane-2-carboxamide]: at 10 µM the inhibition (Concentration 10 μM) was 23%. This molecule also returned an inhibition at 100 µM (Concentration 100 μM) of 30%.

Regarding `Cc1oc(-c2ccncc2)nc1CC1COC(C)(C(=O)N2CCOCC2)OC1` (stereo not drawn) [Example 83, (2-methyl-5-t-((5-methyl-2-(pyridin-4-yl)oxazol-4-yl)methyl)-1,3-dioxan-2-yl)(morpholino)methanone], the “% Inhibition PCSK9” value is reported as 20% (Concentration 1 μM, 1 µM); 25% (Concentration 10 μM, 10 µM); 42% (Concentration 100 μM).

Consider `Cc1oc(-c2ccncc2)nc1CC1COC(C)(C(=O)NCC(=O)N2CCOCC2)OC1` (stereo not drawn) [Example 87, 2-methyl-5-t-((5-methyl-2-(pyridin-4-yl)oxazol-4-yl)methyl)-N-(2-morpholino-2-oxoethyl)-1,3-dioxane-2-carboxamide], for which the “% Inhibition PCSK9” value by setting is: (Concentration 10 μM, 10 µM) 12%; (Concentration 100 μM, 100 µM) 7%.

In the case of `Cc1oc(-c2ccccc2)nc1CCC1COC(C)(C(=O)NCC(=O)N2CCN(C)CC2)OC1` (stereo not drawn) [Example 51, 2-methyl-5-c-(2-(5-methyl-2-phenyloxazol-4-yl)ethyl)-N-(2-(4-methylpiperazin-1-yl)-2-oxoethyl)-1,3-dioxane-2-carboxamide], the “% Inhibition PCSK9” value (Concentration 10 μM) is 10% and the “% Inhibition PCSK9” value (Concentration 100 μM) was found to be 35%.

Regarding `Cc1oc(-c2ccccc2)nc1CC1COC(C)(C(=O)NCC(=O)N2CCSCC2)OC1` (stereo not drawn) [Example 23, 2-methyl-5-c-((5-methyl-2-phenyloxazol-4-yl)methyl)-N-(2-oxo-2-thiomorpholinoethyl)-1,3-dioxane-2-carboxamide], the “% Inhibition PCSK9” value runs as follows: (Concentration 10 μM) 21%; (Concentration 100 μM) 22%.

As to `Cc1oc(-c2ccccc2)nc1CCC1COC(C)(C(=O)NO)OC1` (stereo not drawn) [Example 36, N-hydroxy-2-methyl-5t-(2-(5-methyl-2-phenyloxazol-4-yl)ethyl)-1,3-dioxane-2-carboxamide], the “% Inhibition PCSK9” value by setting is: (Concentration 1 μM, 1 µM) 10%; (Concentration 100 μM, 100 µM) 24%.

In the case of `Cc1oc(-c2ccccc2)nc1CCC1COC(C)(C(=O)N2CCOCC2)OC1` (stereo not drawn) [Example 41, (2-methyl-5-c-(2-(5-methyl-2-phenyloxazol-4-yl)ethyl)-1,3-dioxan-2-yl)(morpholino)methanone], the “% Inhibition PCSK9” value by setting is: (Concentration 10 μM) 12%; (Concentration 100 μM) 19%.
